Laboratory results from patent publication US20160297829A1, “METHOD FOR PRODUCING AVENACIOLIDES AND USES THEREOF” (Academia Sinica, priority 2015, published 2016).
Values after ≈ are worked out from the molar mass of the structure shown. Values joined by “and” are separate entries in the source; they are usually repeats but may differ in a detail not shown here. Equal entries are not always repeated. Where two headings read alike, the source gives them in different places.

How the values were obtained:
[1] = target: T1, MRSA MurA^C119D (Staphylococcus aureus, UniProt Q5HEA0, C119D); assay: MuraA assay (malachite green); format: biochemical, methicillin-resistant Staphylococcus aureus (MRSA); conditions: for IC50, MurA activity: MRSA MurA C119D mutant (fosfomycin resistant), 5 replicates
T1 sequence (Q5HEA0 1-421 C119D): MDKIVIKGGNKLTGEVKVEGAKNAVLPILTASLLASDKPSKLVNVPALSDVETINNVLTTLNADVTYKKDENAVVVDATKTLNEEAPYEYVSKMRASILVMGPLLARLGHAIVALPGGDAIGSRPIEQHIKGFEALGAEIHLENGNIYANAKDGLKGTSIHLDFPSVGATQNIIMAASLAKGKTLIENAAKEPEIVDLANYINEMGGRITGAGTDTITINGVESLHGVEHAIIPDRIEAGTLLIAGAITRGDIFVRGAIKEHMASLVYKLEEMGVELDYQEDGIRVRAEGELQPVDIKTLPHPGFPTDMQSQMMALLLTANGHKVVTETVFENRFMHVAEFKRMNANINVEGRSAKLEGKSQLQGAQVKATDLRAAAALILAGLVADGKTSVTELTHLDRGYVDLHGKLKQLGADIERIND
Protocol: (§1) In a standardized assay, MuraA enzymes were pre-incubated with the substrate UNAG and an inhibitor for 10 min at 37° C. To determine the influence of UNAG on the binding process, experiments were performed in the absence of UNAG during pre-incubation period. The reaction was initiated by the addition of the second substrate PEP, resulting in a total volume of […] with the following concentrations: E. Coli MurA or MRSA MurA 25 nM, UNAG 310 μM, PEP 620 μM, 50 mM HEPES, pH 7.6, DMSO 1% (v/v). The reaction was stopped after 60 min at 37° C. by adding 100 μL of Lanzetta reagent containing malachite green solution (0.045% (w/v)) and ammonium heptamolybdate (8.4% (v/v)) at a ratio of 3:1 and with 0.03% (w/v) Tergitol NP-40 as dye-stabilizing detergent. After 10 min, the absorbance at 620 nm was measured using a FlexStation 3 Microplate Reader (Molecular Devices). Finally, dose-response curves were generated by measuring the enzyme activity of five replicates at least 8 different compound concentrations. The resulting data were plotted and IC50 values indicating the concentration of the compound with a residual activity of 50% were determined.
(§2) Various types of MuraA enzymes, including those from E. Coli, wild type MRSA^WT, and MRSA^C119D mutant strain, were treated with any of the compounds 10d, 13d, or 14, as well as fosfomycin, in which MRSA^WT represents wild type MurA, and MRSA^C119D mutant strain represents MRSA strain in which the 119th amino acid residue, cysteine (C), is replaced by aspartic acid (D).

[2] = target: MRSA MurA^WT (Staphylococcus aureus, UniProt Q5HEA0); assay: MuraA assay (malachite green); format: biochemical, methicillin-resistant Staphylococcus aureus (MRSA); conditions: IC50, MurA activity, MRSA MurA wild type 25 nM, UNAG 310 μM, PEP 620 μM, pH 7.6; 5 replicates
Protocol: as §1, §2

[3] = system: A. baumannii 17978; assay: Minimum Inhibition Concentration (MIC) assay; format: cell-based, Acinetobacter baumannii
Excerpt: (§3) Various strains of microorganisms were used in the present disclosure, including Acinetobacter baumannii (ATCO 17978), Staphylococcus aureus (ATCO 29213), methicillin-resistant Staphylococcus aureus (MRSA) (ATCO 33592), Bacillus subtilis (ATCO 23857), and Escherichia Coli (ATCO 25922), which were purchased from American Type Culture Collection (ATCO), and cultured in Mueller-Hinton (MH) II agar plates or in MH broth.
(§4) Minimum Inhibition Concentration (MIC) Assay
(§5) MIC assay is a standardized assay performed in accordance with the guidelines issued by Clinical and Laboratory Standard Institute (CLSI) that measures the ability of certain agent and/or a surface in inhibiting the growth of a microorganism or killing the microorganism after being in contact with that microorganism for 24 hrs. Accordingly, MIC is the lowest concentration of an anti-bacterial agent and/or a surface that will inhibit the visible growth of a microorganism after overnight culture.
(§6) In practice, microorganisms grown on the agar plates were re-suspended in phosphate-buffered saline (PBS) to an OD 600 of 0.1. Suitable amount of this suspension was added to the appropriate broth media at a final concentration of 5×10^5 colony-forming units (CFU)/mL. Then, 98 μL of the broth+cell solution for each strain was added to each well of 96-well assay plate. Solutions of the present compounds were freshly prepared in DMSO and then serial diluted in 2-fold steps in DMSO, resulting in a final concentrations of 0.004-256 μg/mL when diluted 1:50 in test broth. The initial inoculum for each strain was serially diluted in PBS and plated on appropriate agar plate media to ensure that the assay contained the desired number of CFU. MIC assay plates were incubated overnight at 37° C. under aerobic conditions.

[4] = target: E coli MurA (Escherichia coli, UniProt P0A749); assay: biochemical; conditions: IC50, MurA activity, E coli MurA 25 nM, UNAG 310 μM, PEP 620 μM, pH 7.6; 5 replicates
Protocol: as §1, §2

[5] = system: B. subtilis ATCC 23857; assay: Minimum Inhibition Concentration (MIC) assay; format: cell-based; conditions: Bacillus subtilis, ATCC23857
Excerpt: as §3, §4, §5, §6

[6] = system: S. aureus ATCC 29213; assay: Minimum Inhibition Concentration (MIC) assay; format: cell-based; conditions: Staphylococcus aureus, ATCC29213, overnight at 37° C.
Excerpt: as §3, §4, §5, §6

[7] = system: MRSA; assay: Transmission Electron Microscopy (TEM) of treated bacteria; format: cell-based, methicillin-resistant Staphylococcus aureus (MRSA)
Protocol: (§7) FIG. 1 are TEM photographs of MRSA (a-f) and A. baumannii (g-l) after being treated with the compounds of example 2 (128 μM) and fosfomycin (64 μM), in which (a) and (g) are un-treated S. aureus and A. baumannii; (b) and […] are those treated with the compound 10d, while (c) and (i) are treated with the compound of 13d; (d) and (j) are treated with the compound 14; (e) and (k) are treated with the compound 15; (f) and […] are treated with fosfomycin, in which CW, CM, IM, and OM respectively denote cell walls, cell membranes, inner membranes, and outer membranes; and
(§8) Transmission Electron Microscopy (TEM)
(§9) Exponential phase bacteria were treated with compounds at 4×MIC for 1 hr at 37° C. Then, the cells were washed and fixed and cut into thin slices and photographed using a Thin-layer TEM.

[8] = system: Mice macrophage cell line RAW 264.2; assay: AlamaBlue cell viability assay; format: cell-based; conditions: 24 hrs
Protocol: Mice macrophage cell line RAW 264.2 was used in the present disclosure. RAW 264.2 cells were cultured in RPMI 1640 medium supplemented with 10% fetal calf serum (FCS) and maintained in an environment of 5% CO2/95% air at 37° C.
AlamaBlue Cell Viability Assay
The alamarBlue cell viability assay uses a non-toxic, water-soluble resazurin dye that yields a fluorescent signal and a colorimetric change when incubated with metabolically active cells. The assay is based on the findings that metabolically active cells (or viable cells) may keep the culture medium in a reduced state, whereas the non-viable cells will turn the culture medium into an oxidized state, thereby rendering the redox indicator in the medium (i.e., resazurin dye) to convert from its non-fluorescent oxidized form (blue color) to its fluorescent reduced form (pink color). Thus, the cell viability may be monitored by the fluorescent signal changes at 590 nm.
Cells were plated in 96-well plates at a density of 5,000 cells/100 μL/well for 24 hrs, then 10 μL AlamarBlue™ reagent (AbD Serotee Ltd., Oxford, UK) and various concentrations (i.e., 12.5, 25, 50 or 100 μM) of the test compound (e.g., the compound of example 2) were added, and incubated for 24 hrs. The plates were then placed at a fluorescence reader and fluorescent signals at 590 nm were measured.
In general, mice macrophages were treated with various concentrations of the compounds of example 2 for 24 hrs, the viability of cells were then analyzed by fluorescence analysis in accordance with procedures described in “Materials and Methods” section.

[9] = system: gram-positive bacteria, including MRSA; assay: Growth inhibition (MIC), summary over strains; format: cell-based; conditions: for MIC: Staphylococcus aureus, MRSA, text summary for compounds 10d and 13d over gram-positive strains; for anti-bacteria activity: statement in words
Excerpt: as §4, §5, §6
In this example, the inhibitory effect of the isolated avenaciolide derivatives of example 2 (i.e., compounds 10d, 13d, 14, and 15) on the growth of gram-positive bacteria, including MRSA, were tested; and the results are summarized in Table 1.

[10] = system: S. aureus ATCC 33592 (MRSA strain); assay: Minimum Inhibition Concentration (MIC) assay; format: cell-based, methicillin-resistant Staphylococcus aureus (MRSA); conditions: Staphylococcus aureus, overnight at 37° C.
Excerpt: as §3, §4, §5, §6

[11] = system: A. baumannii; assay: Transmission Electron Microscopy (TEM) of treated bacteria; format: cell-based, Acinetobacter baumannii
Protocol: as §7, §8, §9

[12] = system: E. coli ATCC 25922; assay: Minimum Inhibition Concentration (MIC) assay; format: cell-based, Escherichia Coli
Excerpt: as §3, §4, §5, §6

[13] = 17978, Acinetobacter baumannii, read-out: MIC for gram-negative bacteria
[14] = Acinetobacter baumannii, A. baumannii 17978, overnight at 37° C., read-out: MIC
[15] = B. subtilis ATCC 23857, overnight at 37° C., read-out: MIC
[16] = 128 μg/mL (FIG. 1 legend: 128 μM), treated for an hr
[17] = 12.5 or 25 μM, fluorescence 590 nm
[18] = 50 or 100 μM, fluorescence 590 nm
[19] = Escherichia coli, ATCC25922, overnight at 37° C., read-out: MIC
[20] = fosfomycin 64 μg/mL, positive control

E coli MurA, sequence (P0A749 whole entry): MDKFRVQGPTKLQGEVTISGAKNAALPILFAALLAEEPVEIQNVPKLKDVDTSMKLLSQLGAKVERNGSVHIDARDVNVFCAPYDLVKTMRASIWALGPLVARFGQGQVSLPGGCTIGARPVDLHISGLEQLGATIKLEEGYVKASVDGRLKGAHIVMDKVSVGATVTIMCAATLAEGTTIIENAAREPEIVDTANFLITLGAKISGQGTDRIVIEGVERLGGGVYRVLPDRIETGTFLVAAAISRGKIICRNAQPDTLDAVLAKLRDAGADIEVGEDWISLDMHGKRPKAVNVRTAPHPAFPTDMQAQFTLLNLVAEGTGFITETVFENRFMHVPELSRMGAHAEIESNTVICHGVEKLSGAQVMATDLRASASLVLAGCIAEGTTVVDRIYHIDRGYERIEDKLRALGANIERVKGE

SMILES	IC50 [1]	IC50 [2]	MIC [3, 13]	MIC [3, 14]	IC50 [4]	MIC [5, 15]	MIC [6]	cell wall structure in TEM photographs [7, 16]	growth (viability) of macrophages [8, 17]	growth (viability) of macrophages [8, 18]	MIC [9]	MIC [10]	cell wall structure in TEM photographs [11, 16]	MIC [12, 19]	IC50, MurA activity [1]	anti-bacteria activity [9]	also measured
C=C1C(=O)O[C@H]2C(=O)O[C@H](CCCCCCCC)[C@@H]12 [Compound 10d]	21.5 µM	8.3 µM	256 mg/L (≈ 961 µM)	256 mg/L (≈ 961 µM)	0.9 to 10.8 µM and 0.9 µM	64 mg/L (≈ 240 µM)	16 mg/L (≈ 60.1 µM)	ruptured	slightly affected	significant growth inhibition	16 to 32 mg/L (≈ 60.1 to 120 µM)	32 mg/L (≈ 120 µM)	not affected	128 mg/L (≈ 481 µM)			
C=C(C(=O)OC)[C@@H]1[C@@H](CCCCCCCC)OC(=O)[C@@H]1O [Compound 13d]	7.9 µM	6.7 µM	256 mg/L (≈ 858 µM)	256 mg/L (≈ 858 µM)	0.9 to 10.8 µM and 2.8 µM	32 mg/L (≈ 107 µM)	32 mg/L (≈ 107 µM)	ruptured	slightly affected	significant growth inhibition	16 to 32 mg/L (≈ 53.6 to 107 µM)	16 mg/L (≈ 53.6 µM)	not affected	128 mg/L (≈ 429 µM)			
C=C(C(=O)O)[C@@H]1[C@@H](CCCCCCCC)OC(=O)[C@@H]1O [Compound 14]		~71 µM and 71 µM			0.9 to 10.8 µM and 10.8 µM	256 mg/L (≈ 900 µM)	256 mg/L (≈ 900 µM)	slightly affected	slightly affected	significant growth inhibition		256 mg/L (≈ 900 µM)	completely unaffected		in-effective and No	neither compound 14, nor compound 15 possessed any anti-bacteria activity	MIC ([3]; A. baumannii 17978, overnight at 37° C.): no; MIC ([12]; overnight at 37° C.): no
CCCCCCCC[C@H]1OC(=O)[C@@H]2OC(=O)[C@@H](C)[C@H]12 [Compound 15]								neither MRSA nor A. baumannii was affected					neither MRSA nor A. baumannii was affected			neither compound 14, nor compound 15 possessed any anti-bacteria activity	growth (viability) of macrophages ([8]; various concentrations (12.5, 25, 50 or 100 μM)): completely un-affected
C[C@@H]1O[C@@H]1P(=O)(O)O [fosfomycin, reference compound]		1.6 µM			0.4 µM		4 mg/L (≈ 29 µM)					64 mg/L (≈ 464 µM)		64 mg/L (≈ 464 µM)	failed to suppress and No		MIC ([3]; Acinetobacter baumannii, 17978): 256 mg/L (≈ 1850 µM); MIC [5]: 128 mg/L (≈ 927 µM); cell wall structure in TEM photographs [7, 20]: ruptured; cell wall structure in TEM photographs [11, 20]: ruptured
